Laboratory results taken from publication PMC12730730, “CAPE Derivatives as Potent Agents for Induction of Osteogenic Differentiation in DPSCs and Biomaterial Development” (Biomedicines, 2025).
“Also recorded” adds a separate entry of the source.

Columns and labels:
DPSCs [1] = experiment: Crystal violet cell viability assay of DPSCs in osteogenic medium; type: cell-based; details: 0.5, 1 and 5 µM; 3, 7, 14, 21 and 28 days; vs Control (diff)
Description: Dental pulp stem cells (DPSCs) were cultured in α-MEM medium (Merck, Darmstadt, Germany), supplemented with 10% fetal bovine serum (FBS) and 1% penicillin/streptomycin (Euroclone S.p.A., Milan, Italy). The cells were purchased from Lonza (Lonza Group Ltd., Basel, Switzerland) and kept at 37 °C and 5% CO2.
Cell viability (relative numbers compared to control cells) was determined by a crystal violet assay. After reaching the growth exponential phase, DPSCs were seeded into 48-well culture plates at a density of 8 × 10^3 cells per well. After 24 h, different concentrations (ranging from 0 to 5 µM) of each compound (1a, 1d, 2a and 2d) were added to DPSCs in an osteogenic medium, whereas cells cultured in the same osteogenic medium without CAPE derivatives served as control. After 3, 7, 14, 21, and 28 days, the medium was removed from each well, a wash with PBS was performed and cell were then fixed with glutaraldehyde (1%), and stained at room temperature with a crystal violet solution (0.02%) (both from Thermo Fisher Scientific, Waltham, MA, USA). After 30 min, the cells were rinsed with tap water, and bound crystal violet was dissolved in 70% ethanol. Then, absorbance was read at 600 nm with a spectrophotometer (Multiskan GO, Thermo Fisher Scientific, Waltham, MA, USA). The optical density readings were used to indicate cell survival relative to untreated cultures.

BMP2 = experiment: Real-time RT-PCR, BMP2 gene expression in DPSCs; type: cell-based; details: 0.5 µM, vs Control (diff)
Description: (§1) After 7, 14, and 21 days of treatment, DPSCs were collected and RNA was extracted by PureLink® RNA Mini Kit (Life Technologies, Carlsbad, CA, USA). An amount of 300 µL of lysis buffer supplied with 1% of 2-mercaptoethanol and then 300 µL of 70% v/v ethanol were added to each cell pellet, and samples were transferred into the Spin Cartridge for RNA extraction and purification. After washing with Wash Buffer supplied by the kit, samples were incubated for 15 min with 80 µL of DNase mixture (On-column PureLink® DNase Treatment, Thermo Fisher Scientific) to remove contaminating DNA. RNA extracted from each sample was eluted in 30 µL of Nuclease-Free Water. RNA concentration (ng/µL) was determined through Qubit® RNA BR Assay Kits (Thermo Fisher Scientifc).
(§2) A total of 1 µg of RNA was reverse-transcribed by high-capacity cDNA Reverse Transcription Kit (Life Technologies). Samples were incubated in a thermal cycler at 25 °C for 10 min, 37 °C for 2 h, and 85 °C for 5 min.
(§3) For all the examined mRNAs, gene expression was determined by quantitative PCR using PowerUpTM SYBRTM Green Master Mix (2×) (Thermo Fisher Scientific). Each amplification reaction was performed in a MicroAmp® Optical 96-well Reaction Plate (Life Technologies, Carlsbad, CA, USA) in a reaction volume of 20 µL made up of 10 µL of SYBR Green, 1 µM of each primer (stock solution 100 µM), 10 ng of cDNA and Nuclease-Free Water.
(§4) The run consisted of 50 °C for 2 min, 95 °C for 2 min, 40 cycles of amplification at 95 °C for 15 s and 60 °C for 1 min in QuantStudio 3 (Thermo Fisher Scientific). QuantStudio™ Design & Analysis Software v1.5.1 (Thermo Fisher Scientific) was used to elaborate gene expression data. The authenticity of the PCR products was verified by melt curve analysis. Each gene expression value was normalized to the expression level of 18S. The fold changes of the investigated genes were expressed in relation to the level of 18S at different time points. The relative abundance of mRNA (relative quantification) was quantified using the comparative ^2−∆∆Ct method.

Osterix (SP7) = experiment: Real-time RT-PCR, Osterix (SP7) gene expression in DPSCs; type: cell-based; details: 0.5 µM, vs control sample
Description: as §1, §2, §3, §4

[2] = set-up: method as in PMID 39054610; details: 30 min at 50 °C; cited from earlier work
[3] = system: Alkaline phosphatase (ALP) activity in DPSCs; experiment: Alkaline phosphatase (ALP) activity in supernatants of differentiating DPSCs; type: cell-based; details: 0.5 µM; 3, 7, 14, 21 and 28 days; vs control (diff)
Description: (§5) DPSCs were seeded at a density of 3.5 × 10^4 in 12-well plates in the presence of differentiation medium, which consists of complete α-MEM supplemented with 10 nM dexamethasone, 10 mM β-glycerophosphate and 0.2 mM ascorbic acid phosphate (all purchased from Sigma-Aldrich, St. Louis, MO, USA). At the established experimental times (3, 7, 14, 21 and 28 days), cells and/or supernatants were collected for further analyses.
A colorimetric Alkaline Phosphate Assay Kit (Abcam, Cambridge, UK) was used following manufacturer’s instructions. Briefly, 50 µL of 5 mM p-nitrophenyl phosphate (pNPP) was added to 80 µL of each supernatant and then incubated for 1 h at room temperature in the dark. After the addition of 20 µL of stopping solution, the absorbance was read at 405 nm wavelength through a microplate reader (Multiskan GO, Thermo Fisher Scientific). The ALP activity (mU/mL/min) was calculated in accordance with the manufacturer’s protocol.

[4] = Thermal stability of the solid compounds, 1H-NMR before and after heating; type: physicochemical; details: 20 min at 100 °C, water bath, solid compound
Description: To ensure the suitability of compounds 1a and 1d for adsorption onto biomaterials, their thermal stability was confirmed. Initially, ^1H-NMR spectra were acquired for the compounds. Subsequently, they were subjected to heating for 20 min at 100 °C by immersing glass tubes containing the solid compounds in a water bath. Following the heating process, their ^1H-NMR spectra were reacquired and compared with the initial spectra to assess any alterations.

DPSCs [5] = experiment: Alizarin Red S staining, extracellular mineralized matrix deposition; type: cell-based; details: for Extracellular mineralized matrix deposition compared to non-treated cells (Alizarin Red): 28 days in differentiation medium, 0.5, 1 and 5 µM; for Concentrations at which matrix deposition / mineralization is enhanced: 28 days, tested 0.5, 1 and 5 µM
Description: as §5
Alizarin red staining was performed after 28 days, by washing twice with PBS with Ca^2+/Mg^2+ each well, and fixing the cell monolayer of DPSCs in paraformaldehyde 4% for 15 min at room temperature. After washing twice with deionized water, 40 mM Alizarin Red S solution (Sigma-Aldrich) was added to each well and left at room temperature for 20 min on a shaker, followed by several rinses with deionized water in order to eliminate dye excess. For the spectrophotometric evaluation of calcium level deposits, 800 µL/well of 10% acetic acid was added to each well and then incubated for 30 min in agitation. Wells were then scraped and the sample containing calcium deposits was collected and vortexed. After the addition of hot mineral oil (Sigma-Aldrich), the samples were incubated on ice for 5 min and then centrifuged at 20,000× g for 15 min. After the removal of the supernatant, 10% ammonium hydroxide was added, and the optical density of 150 µL aliquots of this solution was measured at 405 nm through a microplate reader (Multiskan GO, Thermo Fisher Scientific).

Collagen type I = experiment: ELISA of collagen type I release in DPSC supernatants; type: cell-based, human; details: 0.5 µM; 7, 14 and 21 days; normalized on crystal violet values
Description: as §5
The release of collagen type I in cell supernatants was measured by a Human Collagen Type 1 ELISA kit (Cosmo Bio Co., Ltd., Tokyo, Japan; cat. no. ACE-EC1-E105-EX). The absorbance was measured at 450 nm spectrophotometrically (Multiskan GO, Thermo Fisher Scientific). The concentration of collagen type I (µg/mL) was calculated using a standard curve generated with specific standards provided by the manufacturers and normalized with the crystal violet values.

[6] = Kinetic of chemical hydrolysis in 0.02 M phosphate buffer, HPLC; type: physicochemical; details: for half-life: phosphate buffer
Description: For compounds 1a and 1d, the chromatographic analyses were performed using a 1260 Infinity II HPLC (Agilent, Santa Clara, CA, USA) consisting of a 1260 Infinity II Quaternary Pump (model G7111A), 1260 Infinity II auto-sampler (model G7129A), a 1260 Infinity II Multicolumn Thermostat (model G7116A), and a 1260 Infinity II Diode Array Detector (model G7115A) equipped with Poroshell 120 EC-C18 (150 × 4.6 mm i.d., particle size 4 µm, Agilent), operating at 20 °C.
Samples were run using a mixture of water and acetonitrile, enriched with trifluoroacetic acid (0.1% v/v) as mobile phase, in a gradient elution mode starting from 90% to 10% of water over 15 min (Table 2) at a flow rate of 0.8 mL/min. Stock solutions (10 mg/mL) were prepared by dissolving the exact amount of each compound in DMSO and acetonitrile (1:1), and then diluted with acetonitrile to reach 250 µg/mL concentration and analyzed by HPLC, setting the UV-detector at 254 nm.
CAPE, 1a and 1d stock solutions (10 mg/mL) were diluted in prewarmed (37 ± 0.5 °C) PBS solution to reach 10^−4 M concentration (50 mL); these conditions were used to initiate the reaction. At established time points, samples of 250 µL were withdrawn, filtered, and analyzed by HPLC. The pseudo-first-order rate constant (kobs) for the compound hydrolysis was calculated from the slops of the linear plots of ln (% residual compound) against time. The samples were analyzed in triplicate.

osteoblastic cells = system: osteoblastic cells; set-up: method as in PMID 17979115; details: cited from earlier work
calvarial-derived cells = system: calvarial-derived cells; set-up: method as in Jun et al. 54; details: long-term cultures of calvarial-derived cells; ref Jun et al. 54; cited from earlier work
[7] = system: SAOS-2 osteoblastic cell lines; details: cited from earlier work

| Thermal stability (identical 1H NMR spectra before and after heat) [4] | Kobs ([6]; pH 4.5, 37 °C) | half-life ([6]; pH 4.5, pH 4.5, 37 °C) | t1/2 ([6]; pH 4.5, 37 °C) | Kobs ([6]; pH 7.4) | half-life ([6]; pH 7.4, pH 7.4) | SMILES | Cell viability / toxicity towards DPSCs (DPSCs [1]) | BMP2 relative gene expression (BMP2; 21 days) | Osx (SP7) relative gene expression (Osterix (SP7); 21 days) | Thermal stability (consistent 1H NMR spectra before and after heat) [2] | ALP activity compared to non-treated cells [3] | Extracellular mineralized matrix deposition compared to non-treated cells (Alizarin Red) (DPSCs [5]) | Concentrations at which matrix deposition / mineralization is enhanced (DPSCs [5]) | Collagen type I release with respect to the control sample (Collagen type I) | also measured |
| --- | --- | --- | --- | --- | --- | --- | --- | --- | --- | --- | --- | --- | --- | --- | --- |
| stable | 0.009 (±0.0008) h^−1 | 80.6 h | – | – | – | O=C(/C=C/c1ccccc1)Oc1cccc2cccnc12 [compound 1a] | no toxicity | 2.2 fold | 2.26 fold | stable | significantly higher than non-treated cells at all time points | more effective in enhancing matrix deposition | across all tested concentrations | higher quantity of Collagen type I | BMP2 relative gene expression (BMP2; 14 days): 1.2 fold; Osx (SP7) relative gene expression (Osterix (SP7); 14 days): 4.8 fold; t1/2 ([6]; pH 7.4): no degradation; also recorded: stable |
| stable | – | – | no degradation; also recorded: stable | 0.033 (±0.002) h^−1 | 21.2 h | O=C(/C=C/c1ccc(O)c(O)c1)Oc1cccc2cccnc12 [compound 1d] | no toxicity | – | 2.19 fold | stable | significantly higher than non-treated cells at all time points | more effective in enhancing matrix deposition | only enhance mineralization at the lowest concentration | higher quantity of Collagen type I | BMP2 relative gene expression (BMP2; 7 days): significantly increased BMP2 expression |

Continued, compound first:

| SMILES | Thermal stability (identical 1H NMR spectra before and after heat) [4] | Kobs ([6]; pH 4.5, 37 °C) | half-life ([6]; pH 4.5, pH 4.5, 37 °C) | t1/2 ([6]; pH 4.5, 37 °C) | Kobs ([6]; pH 7.4) | half-life ([6]; pH 7.4, pH 7.4) | Cell viability / toxicity towards DPSCs (DPSCs [1]) | BMP2 relative gene expression (BMP2; 21 days) | Osx (SP7) relative gene expression (Osterix (SP7); 21 days) | Thermal stability (consistent 1H NMR spectra before and after heat) [2] | ALP activity compared to non-treated cells [3] | Extracellular mineralized matrix deposition compared to non-treated cells (Alizarin Red) (DPSCs [5]) | Concentrations at which matrix deposition / mineralization is enhanced (DPSCs [5]) | Collagen type I release with respect to the control sample (Collagen type I) | also measured |
| --- | --- | --- | --- | --- | --- | --- | --- | --- | --- | --- | --- | --- | --- | --- | --- |
| O=C(/C=C/c1ccccc1)Nc1cccc2cccnc12 [compound 2a] | – | – | – | – | – | – | no toxicity | – | – | – | – | no significant changes | – | – | – |
| O=C(/C=C/c1ccc(O)c(O)c1)Nc1cccc2cccnc12 [compound 2d] | – | – | – | – | – | – | no toxicity | higher BMP2 expression only after 21 days | – | – | significantly higher than non-treated cells at all time points | more effective in enhancing matrix deposition | only enhance mineralization at the lowest concentration | – | – |
| O=C(/C=C/c1ccc(O)c(O)c1)OCCc1ccccc1 [CAPE, caffeic acid phenethyl ester] | – | 0.006 (±0.0009) h^−1 | 117 h | 117.5 (±2.10) h | 0.018 (±0.004) h^−1 | 38.5 h | – | – | – | – | – | – | – | – | ECM mineralization (osteoblastic cells; CAPE at 10 μM): reduction in ECM mineralization; ECM mineralization compared to the control group (osteoblastic cells; CAPE at concentrations up to 100 nM): greater mineralization; Concentrations at which toxicity is reported (calvarial-derived cells): above 17.6 µM; Cytotoxicity at similar concentrations (0.5-5 µM range) ([7]; SAOS-2 osteoblastic cell lines): does not exhibit cytotoxicity; Concentrations that reduce cell viability [7]: above 10 µM |
